The source of these data is ChEMBL document CHEMBL3286363, “Benzo[d]isothiazole 1,1-dioxide derivatives as dual functional inhibitors of 5-lipoxygenase and microsomal prostaglandin E(2) synthase-1” (Bioorg Med Chem Lett, 2014).

In experiment [1] the target is T1, Prostaglandin E synthase (Homo sapiens, UniProt O14684).
T1 sequence (O14684 whole entry): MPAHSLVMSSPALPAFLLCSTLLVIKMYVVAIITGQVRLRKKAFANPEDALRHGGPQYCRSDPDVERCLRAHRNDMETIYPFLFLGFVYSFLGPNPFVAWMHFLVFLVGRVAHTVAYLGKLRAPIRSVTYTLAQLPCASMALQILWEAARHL
Kind of experiment: Inhibition of microsomal PGES-1 (unknown origin) assessed as PGH2 conversion to PGE2 after 1 min by enzyme immunoassay.

Experiment [2] has as its target T2, Polyunsaturated fatty acid 5-lipoxygenase (Homo sapiens, UniProt P09917).
T2 sequence (P09917 whole entry): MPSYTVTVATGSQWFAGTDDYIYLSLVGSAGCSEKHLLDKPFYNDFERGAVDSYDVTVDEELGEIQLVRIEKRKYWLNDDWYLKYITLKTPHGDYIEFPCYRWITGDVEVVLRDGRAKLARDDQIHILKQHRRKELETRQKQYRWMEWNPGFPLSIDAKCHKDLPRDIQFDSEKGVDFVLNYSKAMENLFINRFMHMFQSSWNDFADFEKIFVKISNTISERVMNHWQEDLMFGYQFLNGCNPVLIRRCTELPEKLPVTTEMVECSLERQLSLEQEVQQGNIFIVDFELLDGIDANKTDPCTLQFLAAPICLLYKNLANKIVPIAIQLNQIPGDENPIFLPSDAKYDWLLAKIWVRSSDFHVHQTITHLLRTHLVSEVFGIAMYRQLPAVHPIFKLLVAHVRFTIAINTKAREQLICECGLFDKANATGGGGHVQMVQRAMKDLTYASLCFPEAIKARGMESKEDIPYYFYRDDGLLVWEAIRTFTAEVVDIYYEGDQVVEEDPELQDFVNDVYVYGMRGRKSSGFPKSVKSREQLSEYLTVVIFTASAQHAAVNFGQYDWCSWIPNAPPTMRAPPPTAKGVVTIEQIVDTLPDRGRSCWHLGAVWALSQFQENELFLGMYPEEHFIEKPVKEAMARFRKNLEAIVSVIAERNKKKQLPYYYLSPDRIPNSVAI
Kind of experiment: Inhibition of human 5-LOX using arachidonic acid as substrate measured as H2DCFDA conversion to 2',7'-dichlorofluorescein preincubated for 10 mins by fluorescence spectrophotometric analysis.

A word on the IC50: it is the concentration at which inhibition is half-maximal. As for `O=[N+]([O-])c1ccc2c(c1)S(=O)(=O)N=C2Nc1ccccc1`, the IC50 in experiment [1] was determined as 23.6 µM; in experiment [2], 8.6 µM.
For `O=[N+]([O-])c1ccc2c(c1)S(=O)(=O)N=C2Nc1cccc(Cl)c1`, in that order: 5.7 µM and over 50 µM.
Turning to `O=[N+]([O-])c1ccc2c(c1)S(=O)(=O)N=C2Nc1cccc(Br)c1`, the IC50 was 7.3 µM in experiment [1] and 3.4 µM in experiment [2].
With `COc1ccc(NC2=NS(=O)(=O)c3cc([N+](=O)[O-])ccc32)cc1`, the IC50 is 16.9 µM in experiment [1] and 12.3 µM in experiment [2].
For `COc1ccc(NC2=NS(=O)(=O)c3cc([N+](=O)[O-])ccc32)cc1OC`, in that order: over 50 µM and 23.5 µM.
For `O=[N+]([O-])c1ccc2c(c1)S(=O)(=O)N=C2NCc1cccc(Br)c1`, in that order: over 50 µM and over 50 µM.
For `O=[N+]([O-])c1ccc2c(c1)S(=O)(=O)N=C2Nc1cccc2ccccc12`, in that order: 2.1 µM and 0.6 µM.
Turning to `Cc1ccccc1NC1=NS(=O)(=O)c2cc([N+](=O)[O-])ccc21`, the IC50 in experiment [1] and in experiment [2] was over 50 µM in each case.
For the molecule `CC(C)c1cccc(NC2=NS(=O)(=O)c3cc([N+](=O)[O-])ccc32)c1`, the results for the IC50 in experiment [1] and in experiment [2] were over 50 µM and 0.25 µM, respectively.
Turning to `CC(C)(C)c1cccc(NC2=NS(=O)(=O)c3cc([N+](=O)[O-])ccc32)c1`, the IC50 in experiment [1] is over 50 µM; in experiment [2], 0.06 µM.
For `COc1cccc(NC2=NS(=O)(=O)c3cc([N+](=O)[O-])ccc32)c1`, in that order: 8.8 µM and 0.24 µM.
For `O=[N+]([O-])c1ccc2c(c1)S(=O)(=O)N=C2Nc1cccc(-c2ccccc2)c1`, in that order: over 50 µM and 0.7 µM.
For `O=[N+]([O-])c1ccc2c(c1)S(=O)(=O)N=C2Nc1cccc2ncccc12`, in that order: 0.15 µM and over 50 µM.
For the molecule `O=[N+]([O-])c1ccc2c(c1)S(=O)(=O)N=C2Nc1cccc2c(Br)cccc12`, the IC50 in experiment [1] and in experiment [2] was over 50 µM in each case.
Turning to `O=[N+]([O-])c1ccc2c(c1)S(=O)(=O)N=C2Nc1cccc2c1OCO2`, the figures for the concentration for half-maximal inhibition (IC50) in experiment [1] and in experiment [2] were over 50 µM and 14.9 µM, respectively.
